This note sets out measurements from patent US5571816A, “Pyrimidines” (Hoechst Aktiengesellschaft, priority 1992, dated 1996).

SMILES strings stand for the structures. Structures can show the parent of a compound that is named as a salt. Where two headings read alike, the source gives them in different places.

For data set [1], the system named is LDL receptor mRNA. Put plainly: Stimulation of LDL receptor mRNA expression in HepG2 cells (Northern blot). The data set is classed as cell-based. Conditions: Homo sapiens; HepG2, 2 × 10^-6 M, 16 h; control = 100%; ratio to β-actin mRNA. The procedure:
1a. In the human hepatocytoma cell line HepG2, which is recognized everywhere as model, the LDL receptor mRNA levels are increased by the compounds of the formula I (Table I).
The mRNA was prepared by the method described by Chomczynski, P. and Sacchi, N., in Anal. Biochem. 162, 156-159 (1987). In the case of organs (such as, for example, liver), the deep-frozen tissue was previously homogenized on dry ice in a mortar, and the mRNA was further concentrated by means of oligo dT by standard methods (cf. Sambrook, J., Fritsch, E. F. and Maniatis, T., Molecular Cloning, second edition, Cold Spring Harbor (1989); this collection of methods also includes descriptions of all the other relevant standard processes of molecular biology used here). 5 to […] of the dissolved mRNA obtained in this way were denatured by standard processes and fractionated on 1% horizontal agarose gels. The mRNA was transferred by capillary blotting to Hybond N membranes (Amersham). Used as specific hybridization probe was a partial LDL receptor cDNA clone and as internal standard was a plasmid which contained a β-actin gene. Both plasmids were labeled using a random primer kit from Amersham to a specific activity of 5×10^9 cpm/μg. Prehybridization, hybridization and washing of the filters took place by standard processes. The filters were subsequently exposed on Cronex 4 films (Dupont) in the presence of an intensifying screen at -70° C. overnight or for up to 14 days, and the hybridization signals were quantified from the intensity of blackening of the film using a commercially available laser densitometer. Subsequently, the quotient of the intensity of the LDL receptor band and of the actin band was determined as internal standard to correct for variations in yield.
The HepG2 cells were incubated in RPMI 1640 standard medium with fetal calf serum (final concentration 10%). Serum-free RPMI medium was used as induction control. Subsequently, the complete mRNA was prepared and, by means of the Northern blot technique, the relevant LDL receptor mRNA and β-actin mRNA levels were determined. The quotient of the LDL receptor mRNA signal and of the β-actin mRNA signal of the control (without added substance) was set equal to 100%, and the stimulation above this of the LDL receptor mRNA levels achieved under the influence of the compounds was expressed as percentage of the control.

Data set [2] concerns serum lipoproteins. Description: Effect on serum lipoproteins of normolipemic male rats in a subchronic experiment. The data set is classed as in vivo. The conditions noted are these: Rattus norvegicus, po, by stomach tube, 7 administrations; for change in vivo at 30 mg/kg: 30 mg/kg/day; for change in vivo at 3 mg/kg: 3 mg/kg/day; for change in vivo at 10 mg/kg: 10 mg/kg/day. The procedure: 3. In vivo, the increased LDL receptor activity in experimental animals is reflected by reduction in the lipoprotein fractions which can be metabolized by the LDL receptor (apoB/E receptor), i.e. a reduction in the LDL and VLDL levels is observed. The following test was carried out:
Effect on serum lipoproteins of normolipemic male rats in a subchronic experiment
Groups of in each case 10 male rats of the HOE: WISKf (SPF 71) strain with an initial weight above 180 g received once a day (in the morning) the test product or the comparison product in 1% aqueous ®Tylose MH 300 solution by stomach tube (0.5 ml/100 g of body weight); the control group in each case received only the vehicle. The last (7th) administration took place 24 hours before removal of blood and sacrifice. There was free access to food and water during the test. The food was withdrawn 24 hours before the removal of blood.
The serum from all 10 rats in a group was pooled for the analysis of the serum lipoproteins. The serum lipoproteins were separated with a preparative ultracentrifuge (KONTRON TGA 65, Rotor BECKMAN 50.4 Ti).
The following conditions specified by Koga, S., Horwitz, D. L., and Scanu, A. M., Journal of Lipid Research 10, 577 (1969) and Havel, R. J., Eder, H. A., and Bragdon, H. H., J. Clin. Invest. 34, 1345 (1955) were used to separate VLDL and LDL: 1. VLDL: Density<1.006, 40,000 rpm for 16 hours 2. LDL: Density 1.006-1.04, 40,000 rmp for 16 hours
Test kits from BOEHRINGER/Mannheim were used for the enzymatic determination of cholesterol and triglycerides in the separated lipoprotein fractions (cf. Siedel, J., Schlumberger, H., Klose, S., Ziegenhorn, J. and Wahlefeld, A. W., J. Clin. Chem. Clin. Biochem. 19, 838 (1981) and Wahlefeld, A. W., in: H. O. Bergmeier: Methoden der enzymatischen Analyse (Methods of Enzymatic Analysis), 2nd edition, Volume II, Verlag Chemie 1974, page 1878). The proteins were determined by the method of Lowry (Lowry, O. H., Roseborough, N. H., Farr, A. L. and Randell, R. J., J. Biol. Chem. 193, 265 (1951)).
Clofibrate was used as comparison product.

Data set [3] can be described thus: Solubility in water of salts (and free bases). The class given is physicochemical. The conditions noted are these: Table 2, salts of compounds I, temp. by No. [°C]: 1 25.5, 2 23.0, 3 22.4, 4 22.4, 5 22.0, 6 25.0, 7 25.5, 8 25.5, 9 25.5, 10 23.5, 11 23.5, 12 25.0, 13 24.0, 14 23.0, 15 22.0, 16 24.5, 17 22.5, 18 22.0; for solubility: water, read-out: Solubility in water, Concentration in % by wt.

The mark [4] stands for this setting: read-out: Serum LDL cholesterol, % change from control at end of treatment.
Where [5] appears, read: read-out: Serum LDL protein, % change from control at end of treatment.
Where [6] appears, read: read-out: Serum VLDL cholesterol, % change from control at end of treatment.
Setting [7] is: read-out: Serum VLDL protein, % change from control at end of treatment.
[8] abbreviates: read-out: Serum VLDL triglycerides, % change from control at end of treatment.

Consider `CCC(C)N(C(=O)c1cnc(N2CC(C)(C)NC2=O)nc1N)c1cccc(C(F)(F)F)c1` (centres unmarked) [Example 8, 4-amino-2-(4,4-dimethyl-2-oxo-1-imidazolidinyl)-pyrimidine-5-carboxylic acid N-sec.-butyl-N-(3-trifluoromethylphenyl)amide hydrochloride], for which the activity at 2 µM in data set [1] stood at 237%. Besides, the change in vivo at 30 mg/kg in data set [2] (setting [4]) is -30%; in data set [2] (setting [5]), -18%; in data set [2] (setting [6]) it was -39%; in data set [2] (setting [7]), -26%; in data set [2] (setting [8]), -37%.

With `CC1(C)CN(c2ncc(C(=O)N(CC3CC3)c3cccc(C(F)(F)F)c3)c(N)n2)C(=O)N1` [Example 12, 4-amino-2-(4,4-dimethyl-2-oxo-1-imidazolidinyl)pyrimidine-5-carboxylic acid N-cyclopropylmethyl-N-(3-trifluoromethylphenyl)amide hydrochloride], in data set [1], the activity at 2 µM was found to be 170%. Moreover, the change in vivo at 3 mg/kg is -26% in data set [2] (setting [4]); -5% in data set [2] (setting [5]); -6% in data set [2] (setting [6]); -8% in data set [2] (setting [7]); -4% in data set [2] (setting [8]). In addition, the change in vivo at 10 mg/kg in data set [2] (setting [4]) is 46%; in data set [2] (setting [5]), -18%; in data set [2] (setting [6]), -63%; in data set [2] (setting [7]) it was -34%; in data set [2] (setting [8]), -51%. In addition, the change in vivo at 30 mg/kg in data set [2] (setting [4]) was -66%; in data set [2] (setting [5]), -30%; in data set [2] (setting [6]), -80%; in data set [2] (setting [7]) it was -51%; in data set [2] (setting [8]), -29%.

With `CCN(C(=O)c1cnc(N2CC(C)(C)NC2=O)nc1N)c1cc(C(F)(F)F)ccc1F` [Example 32], the change in vivo at 10 mg/kg in data set [2] (setting [4]) was -54%; in data set [2] (setting [5]), -36%; in data set [2] (setting [6]) it was -85%; in data set [2] (setting [7]) it was -73%; in data set [2] (setting [8]) it was -68%. Also, the change in vivo at 30 mg/kg is -76% in data set [2] (setting [4]); -49% in data set [2] (setting [5]); -100% in data set [2] (setting [6]); -39% in data set [2] (setting [7]); -80% in data set [2] (setting [8]). The solubility in data set [3] is 10.1 mg/mL.

As to `CC(C)N(C(=O)c1cnc(N2CC(C)(C)NC2=O)nc1N)c1ccc(F)c(C(F)(F)F)c1` [Example 35], the change in vivo at 30 mg/kg in data set [2] (setting [4]) is 46%; in data set [2] (setting [5]) it was -35%; in data set [2] (setting [6]) it was -79%; in data set [2] (setting [7]), -69%; in data set [2] (setting [8]) it was -55%. Further, the “1 part by mass dissolves in ... parts by H2O” value (“1 part by mass dissolves” for short) in data set [3] turned out to be 28.6 parts by H2 O. Further, in data set [3], the solubility came out at 33.8 mg/mL.

As to `CC(C)(C)CN(C(=O)c1cnc(N2CC(C)(C)NC2=O)nc1N)c1cccc(C(F)(F)F)c1` [Example 37], the change in vivo at 10 mg/kg was -39% in data set [2] (setting [4]); -21% in data set [2] (setting [5]); -56% in data set [2] (setting [6]); -30% in data set [2] (setting [7]); -40% in data set [2] (setting [8]). Besides, the change in vivo at 30 mg/kg in data set [2] (setting [4]) was -76%; in data set [2] (setting [5]), -49%; in data set [2] (setting [6]), -85%; in data set [2] (setting [7]), -48%; in data set [2] (setting [8]), -75%. Also, the “1 part by mass dissolves” value in data set [3] is 53.3 parts by H2 O. The solubility in data set [3] was determined as 19.1 mg/mL.

Take `CCN(C(=O)c1cnc(N2CC(C)NC2=O)nc1N)c1cccc(C(F)(F)F)c1` (centres unmarked) [Example 58, 4-amino-2-(4-methyl-2-oxo-1-imidazolidinyl)pyrimidine-5-carboxylic acid N-ethyl-N-(3-trifluoromethylphenyl)amide hydrochloride]: the change in vivo at 30 mg/kg was 46% in data set [2] (setting [4]); -25% in data set [2] (setting [5]); -59% in data set [2] (setting [6]); -22% in data set [2] (setting [7]); -40% in data set [2] (setting [8]). The “1 part by mass dissolves” value in data set [3] came out at 6.8 parts by H2 O. In addition, in data set [3], the solubility came to 128 mg/mL.

On to `CN(C(=O)c1cnc(N2CCNC2=O)nc1N)c1cccc(C(F)(F)F)c1` [Example 64, 4-amino-2-(2-oxo-1-imidazolidinyl)pyrimidine-5-carboxylic acid N-methyl-N-(3-trifluoromethylphenyl)amide hydrochloride], for which the change in vivo at 30 mg/kg in data set [2] (setting [4]) was -20%; in data set [2] (setting [5]) it was -10%; in data set [2] (setting [6]), -18%; in data set [2] (setting [7]) it was -28%. Besides, in data set [3], the “1 part by mass dissolves” value was determined as 19.8 parts by H2 O. Also, the solubility in data set [3] came out at 48.1 mg/mL.
